Drawing on ChEMBL document CHEMBL5291721, “A preclinical secondary pharmacology resource illuminates target-adverse drug reaction associations of marketed drugs” (Nat Commun, 2023), this text covers AC50 for twelve compounds.

Assay [1] addresses Sodium-dependent noradrenaline transporter (Homo sapiens, UniProt P23975).
In the next assay the target is T1, Thromboxane A2 receptor (Homo sapiens, UniProt P21731).
T1 sequence (P21731 whole entry): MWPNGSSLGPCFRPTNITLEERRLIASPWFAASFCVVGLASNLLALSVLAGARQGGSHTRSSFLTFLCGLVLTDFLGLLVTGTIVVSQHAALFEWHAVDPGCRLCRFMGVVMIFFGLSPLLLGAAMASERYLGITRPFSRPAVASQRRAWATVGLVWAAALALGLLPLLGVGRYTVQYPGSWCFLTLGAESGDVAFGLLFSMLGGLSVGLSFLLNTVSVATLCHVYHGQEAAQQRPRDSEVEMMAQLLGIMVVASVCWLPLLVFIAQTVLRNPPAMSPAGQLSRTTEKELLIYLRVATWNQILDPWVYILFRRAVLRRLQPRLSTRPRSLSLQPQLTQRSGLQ

The target in the next assay is D(3) dopamine receptor (Homo sapiens, UniProt P35462).
D(3) dopamine receptor, sequence (P35462 whole entry): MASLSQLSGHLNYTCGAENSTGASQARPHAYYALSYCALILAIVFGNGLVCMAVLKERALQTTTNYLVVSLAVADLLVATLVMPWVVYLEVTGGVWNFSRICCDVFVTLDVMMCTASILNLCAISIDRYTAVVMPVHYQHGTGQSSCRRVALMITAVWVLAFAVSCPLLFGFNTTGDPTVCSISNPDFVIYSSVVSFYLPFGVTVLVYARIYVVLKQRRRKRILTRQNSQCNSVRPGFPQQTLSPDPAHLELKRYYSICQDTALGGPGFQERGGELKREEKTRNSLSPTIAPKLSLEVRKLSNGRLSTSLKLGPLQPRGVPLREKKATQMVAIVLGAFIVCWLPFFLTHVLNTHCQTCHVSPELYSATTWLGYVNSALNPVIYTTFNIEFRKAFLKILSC
Assay [2] concerns the target T2, Muscarinic acetylcholine receptor M1 (Homo sapiens, UniProt P11229).
T2 sequence (P11229 whole entry): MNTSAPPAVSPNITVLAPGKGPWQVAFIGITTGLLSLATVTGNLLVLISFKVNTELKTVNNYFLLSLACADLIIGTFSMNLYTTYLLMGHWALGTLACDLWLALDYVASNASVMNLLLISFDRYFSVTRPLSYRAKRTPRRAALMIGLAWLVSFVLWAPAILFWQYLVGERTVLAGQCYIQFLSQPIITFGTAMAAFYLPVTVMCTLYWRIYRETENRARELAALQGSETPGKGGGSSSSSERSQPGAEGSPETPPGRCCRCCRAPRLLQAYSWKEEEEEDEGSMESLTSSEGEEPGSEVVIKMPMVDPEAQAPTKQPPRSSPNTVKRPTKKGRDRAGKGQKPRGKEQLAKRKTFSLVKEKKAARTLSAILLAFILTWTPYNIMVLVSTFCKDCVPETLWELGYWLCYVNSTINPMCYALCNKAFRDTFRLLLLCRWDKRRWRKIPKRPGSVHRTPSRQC
It counts as functional.

The target in a further assay is Adenosine receptor A2a (Homo sapiens, UniProt P29274).
Adenosine receptor A2a, sequence (P29274 whole entry): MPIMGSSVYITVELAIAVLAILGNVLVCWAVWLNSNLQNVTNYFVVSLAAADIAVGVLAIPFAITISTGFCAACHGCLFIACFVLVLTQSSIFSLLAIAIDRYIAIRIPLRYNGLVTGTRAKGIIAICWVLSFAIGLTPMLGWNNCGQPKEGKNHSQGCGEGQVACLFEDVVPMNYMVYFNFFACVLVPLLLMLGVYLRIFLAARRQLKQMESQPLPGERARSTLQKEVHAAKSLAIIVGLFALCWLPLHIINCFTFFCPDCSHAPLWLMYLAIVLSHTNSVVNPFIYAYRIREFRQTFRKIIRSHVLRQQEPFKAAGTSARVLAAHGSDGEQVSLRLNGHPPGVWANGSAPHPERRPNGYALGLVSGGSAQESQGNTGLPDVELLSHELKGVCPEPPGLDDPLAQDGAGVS
In the next assay the target is Cannabinoid receptor 1 (Homo sapiens, UniProt P21554). The class given is functional, cell-based.
Cannabinoid receptor 1, sequence (P21554 whole entry): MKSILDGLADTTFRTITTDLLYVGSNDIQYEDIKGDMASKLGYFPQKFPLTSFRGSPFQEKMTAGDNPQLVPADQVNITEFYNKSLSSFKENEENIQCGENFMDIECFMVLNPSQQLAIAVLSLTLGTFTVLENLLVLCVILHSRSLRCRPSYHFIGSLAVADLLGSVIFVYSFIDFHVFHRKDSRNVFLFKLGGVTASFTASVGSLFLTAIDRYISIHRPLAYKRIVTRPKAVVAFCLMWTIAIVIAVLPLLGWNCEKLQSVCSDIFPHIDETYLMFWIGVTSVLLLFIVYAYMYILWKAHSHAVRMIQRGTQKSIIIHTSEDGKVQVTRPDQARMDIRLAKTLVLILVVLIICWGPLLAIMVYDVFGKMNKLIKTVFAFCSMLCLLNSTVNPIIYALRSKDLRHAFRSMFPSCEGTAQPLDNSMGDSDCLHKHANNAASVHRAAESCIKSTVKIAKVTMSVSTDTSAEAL
The target of assay [3] is Growth hormone secretagogue receptor type 1 (Homo sapiens, UniProt Q92847).
Growth hormone secretagogue receptor type 1, sequence (Q92847 whole entry): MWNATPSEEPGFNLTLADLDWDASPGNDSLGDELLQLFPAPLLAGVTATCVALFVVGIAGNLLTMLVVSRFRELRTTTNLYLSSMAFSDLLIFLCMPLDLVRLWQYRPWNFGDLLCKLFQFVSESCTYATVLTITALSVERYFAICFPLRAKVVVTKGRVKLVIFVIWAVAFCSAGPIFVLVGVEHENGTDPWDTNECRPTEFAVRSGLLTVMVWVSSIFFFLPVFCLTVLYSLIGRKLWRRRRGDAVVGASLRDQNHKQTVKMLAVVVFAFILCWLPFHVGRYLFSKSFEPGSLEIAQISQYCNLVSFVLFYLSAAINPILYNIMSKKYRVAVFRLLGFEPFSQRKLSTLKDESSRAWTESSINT
The target in assay [4] is T3, 5-hydroxytryptamine receptor 1A (Homo sapiens, UniProt P08908).
T3 sequence (P08908 whole entry): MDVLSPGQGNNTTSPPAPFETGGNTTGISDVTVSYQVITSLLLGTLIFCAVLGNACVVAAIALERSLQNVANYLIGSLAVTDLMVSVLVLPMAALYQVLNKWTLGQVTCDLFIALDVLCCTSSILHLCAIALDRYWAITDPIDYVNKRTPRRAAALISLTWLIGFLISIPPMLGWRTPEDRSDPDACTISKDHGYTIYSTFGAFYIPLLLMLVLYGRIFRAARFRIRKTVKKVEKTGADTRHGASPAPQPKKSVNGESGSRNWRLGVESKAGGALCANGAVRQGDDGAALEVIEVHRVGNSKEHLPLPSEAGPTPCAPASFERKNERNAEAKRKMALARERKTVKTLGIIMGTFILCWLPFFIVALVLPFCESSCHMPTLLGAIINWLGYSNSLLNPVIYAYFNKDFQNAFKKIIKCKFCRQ
It counts as functional, cell-based.

Another assay addresses T4, Endothelin-1 receptor (Homo sapiens, UniProt P25101).
T4 sequence (P25101 whole entry): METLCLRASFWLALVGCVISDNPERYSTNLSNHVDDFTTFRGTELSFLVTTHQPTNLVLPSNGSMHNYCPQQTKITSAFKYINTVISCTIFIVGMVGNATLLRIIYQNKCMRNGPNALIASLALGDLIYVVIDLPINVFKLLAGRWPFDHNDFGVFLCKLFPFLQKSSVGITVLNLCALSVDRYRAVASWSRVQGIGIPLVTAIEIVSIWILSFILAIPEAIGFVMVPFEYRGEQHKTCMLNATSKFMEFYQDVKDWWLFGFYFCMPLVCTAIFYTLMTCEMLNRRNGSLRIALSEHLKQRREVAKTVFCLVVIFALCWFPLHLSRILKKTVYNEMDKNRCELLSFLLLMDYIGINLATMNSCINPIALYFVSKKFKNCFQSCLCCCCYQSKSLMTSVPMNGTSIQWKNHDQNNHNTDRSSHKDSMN

For assay [5], the target named is Voltage-gated inwardly rectifying potassium channel KCNH2 (Homo sapiens, UniProt Q12809). It counts as functional. Particulars: read-out: AC50.
Voltage-gated inwardly rectifying potassium channel KCNH2, sequence (Q12809 whole entry): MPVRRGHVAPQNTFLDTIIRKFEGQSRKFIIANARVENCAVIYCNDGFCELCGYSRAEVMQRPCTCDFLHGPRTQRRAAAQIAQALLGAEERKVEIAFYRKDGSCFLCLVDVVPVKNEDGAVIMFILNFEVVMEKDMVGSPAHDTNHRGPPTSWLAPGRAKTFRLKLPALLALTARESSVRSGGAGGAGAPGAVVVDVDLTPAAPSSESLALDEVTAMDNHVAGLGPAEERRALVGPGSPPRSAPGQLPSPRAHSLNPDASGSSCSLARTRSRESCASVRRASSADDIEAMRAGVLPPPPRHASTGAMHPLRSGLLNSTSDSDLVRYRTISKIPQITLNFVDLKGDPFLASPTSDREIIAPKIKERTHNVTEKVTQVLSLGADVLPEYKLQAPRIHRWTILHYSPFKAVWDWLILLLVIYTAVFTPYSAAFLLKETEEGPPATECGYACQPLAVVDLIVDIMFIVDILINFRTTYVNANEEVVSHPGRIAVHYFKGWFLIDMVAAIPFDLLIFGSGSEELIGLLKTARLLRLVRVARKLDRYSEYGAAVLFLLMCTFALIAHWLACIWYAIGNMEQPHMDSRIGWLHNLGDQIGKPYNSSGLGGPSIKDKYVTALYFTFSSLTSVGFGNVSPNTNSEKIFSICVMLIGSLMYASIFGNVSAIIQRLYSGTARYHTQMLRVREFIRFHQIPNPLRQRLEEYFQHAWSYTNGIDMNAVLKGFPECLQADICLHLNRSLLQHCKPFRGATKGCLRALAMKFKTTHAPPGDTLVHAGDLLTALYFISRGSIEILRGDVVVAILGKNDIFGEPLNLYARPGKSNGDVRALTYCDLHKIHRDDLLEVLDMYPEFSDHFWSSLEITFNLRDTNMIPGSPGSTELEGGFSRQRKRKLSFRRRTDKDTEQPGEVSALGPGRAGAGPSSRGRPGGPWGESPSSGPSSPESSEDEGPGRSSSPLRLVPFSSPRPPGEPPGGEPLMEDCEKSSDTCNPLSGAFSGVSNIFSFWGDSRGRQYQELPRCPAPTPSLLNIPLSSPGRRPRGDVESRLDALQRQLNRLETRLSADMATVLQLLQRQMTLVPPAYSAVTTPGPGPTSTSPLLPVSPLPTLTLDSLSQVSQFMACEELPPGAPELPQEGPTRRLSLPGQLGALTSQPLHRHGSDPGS
Assay [6] concerns the target T5, Alpha-2C adrenergic receptor (Homo sapiens, UniProt P18825).
T5 sequence (P18825 whole entry): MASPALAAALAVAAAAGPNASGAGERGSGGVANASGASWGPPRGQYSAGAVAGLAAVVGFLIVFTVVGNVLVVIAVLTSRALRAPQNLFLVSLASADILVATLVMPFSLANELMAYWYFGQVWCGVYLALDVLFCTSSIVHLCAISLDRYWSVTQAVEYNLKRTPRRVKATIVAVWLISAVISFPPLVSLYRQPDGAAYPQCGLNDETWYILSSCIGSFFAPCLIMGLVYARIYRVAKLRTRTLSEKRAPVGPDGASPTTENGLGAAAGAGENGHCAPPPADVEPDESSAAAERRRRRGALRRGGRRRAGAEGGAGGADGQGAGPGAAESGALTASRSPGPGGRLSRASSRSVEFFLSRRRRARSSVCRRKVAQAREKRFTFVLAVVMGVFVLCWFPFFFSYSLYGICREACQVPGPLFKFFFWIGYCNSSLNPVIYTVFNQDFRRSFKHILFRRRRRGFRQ
The class given is functional.

The target in assay [7] is 5-hydroxytryptamine receptor 2B (Homo sapiens, UniProt P41595). It counts as functional, cell-based.
5-hydroxytryptamine receptor 2B, sequence (P41595 whole entry): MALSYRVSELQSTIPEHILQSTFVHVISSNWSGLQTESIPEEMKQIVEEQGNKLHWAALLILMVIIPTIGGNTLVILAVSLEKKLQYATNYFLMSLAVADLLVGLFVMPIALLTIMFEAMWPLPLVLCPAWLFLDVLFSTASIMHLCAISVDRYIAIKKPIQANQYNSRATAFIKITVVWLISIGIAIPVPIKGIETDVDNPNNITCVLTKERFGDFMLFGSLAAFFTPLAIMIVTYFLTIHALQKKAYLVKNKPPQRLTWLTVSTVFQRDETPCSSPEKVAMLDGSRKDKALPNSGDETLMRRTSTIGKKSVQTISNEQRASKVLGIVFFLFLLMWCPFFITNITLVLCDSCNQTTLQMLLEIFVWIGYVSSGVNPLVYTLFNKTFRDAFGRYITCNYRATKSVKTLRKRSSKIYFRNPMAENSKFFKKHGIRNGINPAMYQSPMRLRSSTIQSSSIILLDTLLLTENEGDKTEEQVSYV

Molecules are shown by their SMILES. Where only a bound is given, the exact number is not on record here.

A word on the AC50: it is the concentration at which the activity in the assay is half-maximal.
Note: assay procedure not described here.

Sodium-dependent noradrenaline transporter, sequence (P23975 whole entry): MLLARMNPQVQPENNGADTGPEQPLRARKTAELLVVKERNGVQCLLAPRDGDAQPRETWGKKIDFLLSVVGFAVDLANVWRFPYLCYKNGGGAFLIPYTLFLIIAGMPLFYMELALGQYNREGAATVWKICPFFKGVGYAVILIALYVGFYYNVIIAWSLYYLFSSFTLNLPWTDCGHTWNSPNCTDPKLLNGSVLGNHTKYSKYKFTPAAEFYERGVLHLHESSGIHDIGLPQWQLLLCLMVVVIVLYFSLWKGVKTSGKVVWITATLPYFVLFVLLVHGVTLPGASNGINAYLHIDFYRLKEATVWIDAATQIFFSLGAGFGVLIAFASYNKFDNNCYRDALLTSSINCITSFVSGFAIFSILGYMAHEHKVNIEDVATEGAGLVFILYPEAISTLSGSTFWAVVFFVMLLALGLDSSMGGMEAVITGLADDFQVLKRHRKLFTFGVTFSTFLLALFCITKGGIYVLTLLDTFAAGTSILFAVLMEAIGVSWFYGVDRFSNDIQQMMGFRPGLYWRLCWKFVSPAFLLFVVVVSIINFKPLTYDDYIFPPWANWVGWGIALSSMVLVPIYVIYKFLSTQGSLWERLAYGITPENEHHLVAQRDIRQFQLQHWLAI

Regarding `COc1ccccc1OCCNCC(O)c1ccc(C)c(S(N)(=O)=O)c1` (stereo not given) [AMOSULALOL], the AC50 in [1] is > 30 µM; on Thromboxane A2 receptor, > 30 µM; at D(3) dopamine receptor, 0.12 µM; in assay [2] it was > 30 µM; at Adenosine receptor A2a it was > 30 µM; on Cannabinoid receptor 1 it was > 30 µM. In addition, the AC50 in assay [3] is > 30 µM; in assay [4], > 30 µM; on Endothelin-1 receptor, > 30 µM; in assay [5], 15 µM; in [6] it was 2.3 µM; in assay [7], > 30 µM.
On to `CC(C)C(=O)c1c(C(C)C)nn2ccccc12` [IBUDILAST], for which the AC50 in [1] was > 30 µM; at Thromboxane A2 receptor it was > 30 µM; at D(3) dopamine receptor, > 30 µM; in [2], > 30 µM; on Adenosine receptor A2a, 17 µM; at Cannabinoid receptor 1, > 30 µM. Moreover, the AC50 (in [3]; in [4]; at Endothelin-1 receptor; in [5]; in [6]; in assay [7]) was > 30 µM throughout.
Regarding `O=C(O)/C=C/c1ccc(Cn2ccnc2)cc1` [OZAGREL], the AC50 (on Thromboxane A2 receptor; at D(3) dopamine receptor; in [2]; on Adenosine receptor A2a; on Cannabinoid receptor 1; in [3]) was > 30 µM in each case. Besides, the AC50 (in assay [4]; on Endothelin-1 receptor; in assay [5]; in [6]; in [7]) was > 30 µM in each case.
As to `CC(C)(C)C(=O)Oc1ccc(S(=O)(=O)Nc2ccccc2C(=O)NCC(=O)O)cc1`, the AC50 (in [1]; on Thromboxane A2 receptor; on D(3) dopamine receptor; in assay [2]; on Adenosine receptor A2a; on Cannabinoid receptor 1) was > 30 µM in each case. Moreover, the AC50 (in assay [3]; in [4]; on Endothelin-1 receptor; in assay [5]; in assay [6]; in [7]) was > 30 µM each time.
As for `Clc1ccc(CCCOCCCN2CCCCC2)cc1` [PITOLISANT], the AC50 in assay [1] is 13 µM; at Thromboxane A2 receptor it was > 30 µM; on D(3) dopamine receptor, > 30 µM; in [2], > 30 µM; on Adenosine receptor A2a it was > 30 µM; at Cannabinoid receptor 1, > 30 µM. Further, the AC50 in [3] is > 30 µM; in assay [4] it was > 30 µM; on Endothelin-1 receptor it was > 30 µM; in assay [5] it was 1.7 µM; in assay [6] it was 6 µM; in assay [7] it was > 30 µM.
Regarding `CCC(C(=O)O)c1ccc(N2Cc3ccccc3C2=O)cc1` (stereo not given) [INDOBUFEN], the AC50 (in assay [1]; on Thromboxane A2 receptor; on D(3) dopamine receptor; in assay [2]; on Adenosine receptor A2a; at Cannabinoid receptor 1) was > 30 µM each time. The AC50 (in [3]; in assay [4]; at Endothelin-1 receptor; in assay [5]; in [6]; in assay [7]) was > 30 µM throughout.
`CN1CCN(CC/C=C2/c3ccccc3Sc3ccc(S(=O)(=O)N(C)C)cc32)CC1` [THIOTHIXENE]: the AC50 was > 10 µM in assay [1]; > 30 µM on Thromboxane A2 receptor; 0.0139 µM on D(3) dopamine receptor; > 10 µM in [2]; 11.6 µM on Adenosine receptor A2a; > 30 µM at Cannabinoid receptor 1. Moreover, the AC50 in assay [3] is 25.3 µM; at Endothelin-1 receptor it was > 30 µM; in assay [5] it was 1.63 µM; in assay [7], > 10 µM.
Regarding `COc1ccc2c3c1O[C@H]1C(=O)CC[C@@]4(O)[C@@H](C2)N(C)CC[C@]314` [OXYCODONE], the AC50 (in assay [1]; at Thromboxane A2 receptor; on D(3) dopamine receptor; in assay [2]; at Adenosine receptor A2a; on Cannabinoid receptor 1) was > 30 µM in each case. Also, the AC50 (in assay [3]; in [4]; on Endothelin-1 receptor; in assay [5]; in [7]) was > 30 µM throughout.
Turning to `CC(CC(c1ccccc1)c1ccccc1)NC(C)(C)C` (stereo not given) [TERODILINE], the AC50 in assay [1] is > 30 µM; at Thromboxane A2 receptor it was > 30 µM; at D(3) dopamine receptor, > 30 µM; in assay [2], 1.4 µM; on Adenosine receptor A2a, > 30 µM; at Cannabinoid receptor 1, > 30 µM. The concentration at half-maximal activity (AC50) (in assay [3]; in [4]; on Endothelin-1 receptor; in assay [6]; in assay [7]) was > 30 µM throughout.
Turning to `COc1ccccc1N1CCN(CCCNc2cc(=O)n(C)c(=O)n2C)CC1`, the AC50 in assay [1] was > 30 µM; at Thromboxane A2 receptor, > 30 µM; on D(3) dopamine receptor, 1.4 µM; in assay [2] it was > 30 µM; at Adenosine receptor A2a, > 30 µM; at Cannabinoid receptor 1, > 30 µM. The AC50 (in assay [3]; on Endothelin-1 receptor; in [5]; in [7]) was > 30 µM throughout.
As to `NCC(=O)CCC(=O)O` [AMINOLEVULINIC ACID], the AC50 (at Thromboxane A2 receptor; on D(3) dopamine receptor; in [2]; at Adenosine receptor A2a; at Cannabinoid receptor 1; in [3]) was > 30 µM in each case. Further, the AC50 (in assay [4]; on Endothelin-1 receptor; in assay [5]; in assay [6]; in assay [7]) was > 30 µM throughout.
For the compound `CC(=O)O[C@H]1CC[C@@]2(C)C(=CC[C@@H]3[C@@H]2CC[C@]2(C)C(c4cccnc4)=CC[C@@H]32)C1` [ABIRATERONE ACETATE], the AC50 (in assay [1]; on Thromboxane A2 receptor; on D(3) dopamine receptor; in assay [2]; at Adenosine receptor A2a; on Cannabinoid receptor 1) was > 30 µM in each case. For the same compound, the AC50 (in assay [3]; in assay [4]; on Endothelin-1 receptor; in [5]; in assay [6]) was > 30 µM throughout.
